Tests used:
[1] = Chronic (20 weeks) oral administration in aged mice: body weight, food intake, organ mass, plasma citrulline; format: in vivo, C57BL/6JRj mice; conditions: 1 mg/kg in the food
Method: Figure 2 Chronic oral administration of ALT-007 enhances physical fitness in aged mice. (A) Schematic representation of the study time-line. Compounds were mixed in the food, ALT-007 at 1 mg/kg and DMSO at equivalent volume. At week 0: young mice were 2 months old, and the old mice were 18 months old. (B) Body weight curve over the course of the study (20 weeks). (C) Food intake curve throughout the study. (D–G) Organ mass at sacrifice (week 20), normalized to body weight. (H) Oral glucose tolerance test (oGTT) performed at week 17. (I) Best performance during hanging time normalized to BW at week 7. (J) Best performance during grip strength on the 4 limbs normalized to BW at week 8. (K) Rotarod’s best latency time at week 9. (L) VO2Max performed at week 11. (M) Uphill maximum running time performed at week 13. N = 9 per group. (N) Difference of CK level after—before 90 min downhill running performed at week 15. N = 6 in young, N = 8 in DMSO and N = 7 in ALT-007-treated groups. (O–Q) Measurement of kCAL/h at night (O) and at day (P) and movement recording in x, y, z (Q) during 24 h in CLAMS at week 19. N = 12 per group unless specified otherwise. Quantitative data are expressed as median with IQR. *P < 0.05, **P < 0.01, ***P < 0.001, ****P < 0.0001. ANOVA test was used for multiple comparison, and the Mann–Whitney U test when comparing 2 groups. All tests were 2 sided.
Young (2 month-old) and aged (18 month-old) male C57BL/6JRj mice were purchased from Janvier Laboratories. Housing conditions involved maintaining two to five animals per cage under a 12 h light/dark cycle, with continuous access to food and water. Animals were fed a standard chow diet (Safe 150) with the following composition: 56.9% nitrogen-free extract, of which 41.0% was starch and 3.4% was sugars, 18.0% crude protein, 4.8% crude fat, 4.2% crude ash, 4.1% crude fiber and 12.0% moisture. Young (2 month-old) and old (18 month-old) mice were monitored for 20 weeks. Mice were administered either DMSO as a control or ALT-007. ALT-007 was dissolved in DMSO or DMSO alone were mixed in the food (1 mg/kg for ALT-007 or equivalent volume of DMSO for controls). Body weight and food intake measurements were recorded weekly until sacrifice.
(§1) Prior to sacrifice, mice were fasted for 4 h in the morning. Animals were sacrificed between 1:30 and 4 p.m. Mice were anesthetized with isoflurane, followed by a complete blood draw from the vena cava and perfusion with cold phosphate-buffered saline. Immediately thereafter, various tissues including liver, kidney, spleen, heart, brain, gastrocnemius muscle and tibialis anterior muscle were harvested, weighted and promptly flash-frozen in liquid nitrogen.
1.1. Supplementary Figure 1
(A) Citrulline levels in the plasma of mice treated with ALT-007 at 1 mg/kg or vehicle […]

Aged C57BL/6J mice [2] = test: Metabolic cages (CLAMS): energy expenditure and activity; format: in vivo, C57BL/6JRj mice; conditions: 1 mg/kg in the food, week 19, CLAMS
Method: Energy expenditure and activity during day and night were measured using the CLAMS monitoring system (Columbus instruments). Mice were housed in metabolic cages for 48 h.

Aged C57BL/6J mice [3] = test: Lean mass (echoMRI) and muscle weight at sacrifice in aged mice; format: in vivo, C57BL/6JRj mice; conditions: 1 mg/kg in the food
Method: At the first and last (week 20) after experiment onset (as indicated in Figure 2A), body composition analysis was conducted. Each mouse was placed for short in an Echo-MRI (magnetic resonance imaging) machine, specifically the 3-in-1 model from Echo Medical Systems. This procedure recorded lean mass, along with total body weight, with each measurement taking approximately 1 min per individual.
as §1

[4] = design: method as in PMID 29669694; conditions: compared to Myriocin; cited from earlier work
[5] = design: method as in PMID 29669694; conditions: cited from earlier work

COc1cc(C(=O)N2CC[C@H](NC(=O)c3ccccc3OC(F)(F)F)c3c2cnn3C(C)C)cnc1OC [ALT-007]
body weight ([1]; 20 weeks): stable body weight | food intake ([1]; 20 weeks): absence of changes in food intake | gastrointestinal (GI) toxicity by plasma citrulline levels ([1]; 20 weeks, vs untreated mice): no gastrointestinal (GI) toxicity | tissue weights relative to control ([1]; at sacrifice week 20, normalized to body weight): absence of changes | energy expenditure (kCal/h) at night (Aged C57BL/6J mice [2]): significant increase | global physical activity (Aged C57BL/6J mice [2]; vs aged control): completely restored the decline in global physical activity | lean mass measured by echoMRI (Aged C57BL/6J mice [3]; after 11 weeks): increased lean mass | muscle weight (gastrocnemius, tibialis anterior) (Aged C57BL/6J mice [3]; at sacrifice after 20 weeks): increased muscle weight | aqueous solubility [4]: improved | oral bioavailability [5]: orally bioavailable | toxicity in long-term dosing ([5]; rodents): non-toxic in long-term dosing in rodents

— PMC11729425 (ACS Pharmacology & Translational Science, 2024)
